Key:
[1] = target: Beta-2 adrenergic receptor (Homo sapiens, UniProt P07550)
[2] = target: T1, Alpha-2A adrenergic receptor (Homo sapiens, UniProt P08913)
T1 sequence (P08913 whole entry): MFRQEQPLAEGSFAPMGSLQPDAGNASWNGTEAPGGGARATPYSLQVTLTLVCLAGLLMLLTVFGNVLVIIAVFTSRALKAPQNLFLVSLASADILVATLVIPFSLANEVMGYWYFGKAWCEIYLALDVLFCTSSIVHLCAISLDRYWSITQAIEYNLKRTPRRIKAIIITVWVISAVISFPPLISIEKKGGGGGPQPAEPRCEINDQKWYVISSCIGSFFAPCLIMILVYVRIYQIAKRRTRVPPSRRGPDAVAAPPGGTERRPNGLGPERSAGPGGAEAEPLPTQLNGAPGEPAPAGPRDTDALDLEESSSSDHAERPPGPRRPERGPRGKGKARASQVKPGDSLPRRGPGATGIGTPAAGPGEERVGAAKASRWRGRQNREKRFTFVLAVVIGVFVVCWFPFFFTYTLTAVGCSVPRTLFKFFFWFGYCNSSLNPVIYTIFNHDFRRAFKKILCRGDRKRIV

[3] = target: T2, Gamma-aminobutyric acid receptor subunit alpha-1 (Homo sapiens, UniProt P14867)
T2 sequence (P14867 whole entry): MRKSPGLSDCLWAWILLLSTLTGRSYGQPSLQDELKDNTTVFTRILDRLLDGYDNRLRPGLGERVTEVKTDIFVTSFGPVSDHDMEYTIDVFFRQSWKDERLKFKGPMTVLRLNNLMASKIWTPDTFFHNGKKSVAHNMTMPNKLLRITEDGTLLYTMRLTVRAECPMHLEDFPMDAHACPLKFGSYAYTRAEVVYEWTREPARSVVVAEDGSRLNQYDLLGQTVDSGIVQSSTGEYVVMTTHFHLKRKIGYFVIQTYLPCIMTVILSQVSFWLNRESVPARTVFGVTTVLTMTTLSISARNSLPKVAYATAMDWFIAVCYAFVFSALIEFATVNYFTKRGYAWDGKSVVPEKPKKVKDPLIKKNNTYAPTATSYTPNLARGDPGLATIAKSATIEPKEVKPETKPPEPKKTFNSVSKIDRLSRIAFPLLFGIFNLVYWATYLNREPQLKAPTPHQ

[4] = target: T3, Solute carrier family 22 member 1 (Homo sapiens, UniProt O15245)
T3 sequence (O15245 whole entry): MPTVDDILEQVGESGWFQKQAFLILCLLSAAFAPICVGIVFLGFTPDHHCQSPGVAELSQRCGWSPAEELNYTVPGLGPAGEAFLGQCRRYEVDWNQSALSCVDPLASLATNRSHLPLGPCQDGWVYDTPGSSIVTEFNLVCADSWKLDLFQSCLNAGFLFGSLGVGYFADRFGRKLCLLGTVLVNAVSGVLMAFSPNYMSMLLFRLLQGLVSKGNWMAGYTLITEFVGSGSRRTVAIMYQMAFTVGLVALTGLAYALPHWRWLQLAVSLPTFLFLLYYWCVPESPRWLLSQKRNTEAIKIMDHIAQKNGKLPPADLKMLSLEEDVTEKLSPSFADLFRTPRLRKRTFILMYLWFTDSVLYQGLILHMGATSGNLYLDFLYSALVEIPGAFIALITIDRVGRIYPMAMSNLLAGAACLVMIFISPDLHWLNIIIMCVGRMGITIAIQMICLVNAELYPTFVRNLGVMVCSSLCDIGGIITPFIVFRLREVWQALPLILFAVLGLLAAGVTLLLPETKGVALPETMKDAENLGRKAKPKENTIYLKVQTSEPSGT

[5] = target: D(1A) dopamine receptor (Homo sapiens, UniProt P21728)
[6] = target: 5-hydroxytryptamine receptor 1D (Homo sapiens, UniProt P28221)
[7] = target: T4, Muscarinic acetylcholine receptor M2 (Homo sapiens, UniProt P08172)
T4 sequence (P08172 whole entry): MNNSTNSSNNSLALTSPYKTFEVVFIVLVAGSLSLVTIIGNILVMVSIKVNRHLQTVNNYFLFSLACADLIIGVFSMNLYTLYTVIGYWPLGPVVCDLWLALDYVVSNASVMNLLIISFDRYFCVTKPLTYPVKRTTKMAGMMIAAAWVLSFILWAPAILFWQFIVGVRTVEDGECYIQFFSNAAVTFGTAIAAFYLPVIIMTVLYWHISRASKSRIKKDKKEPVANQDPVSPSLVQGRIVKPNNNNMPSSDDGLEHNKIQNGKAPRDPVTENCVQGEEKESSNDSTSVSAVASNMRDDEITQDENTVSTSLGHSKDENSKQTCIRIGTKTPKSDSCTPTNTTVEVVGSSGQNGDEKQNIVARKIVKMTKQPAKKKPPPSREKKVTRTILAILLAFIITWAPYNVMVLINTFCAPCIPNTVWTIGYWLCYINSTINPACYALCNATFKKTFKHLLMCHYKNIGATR

[8] = target: T5, 5-hydroxytryptamine receptor 1A (Homo sapiens, UniProt P08908)
T5 sequence (P08908 whole entry): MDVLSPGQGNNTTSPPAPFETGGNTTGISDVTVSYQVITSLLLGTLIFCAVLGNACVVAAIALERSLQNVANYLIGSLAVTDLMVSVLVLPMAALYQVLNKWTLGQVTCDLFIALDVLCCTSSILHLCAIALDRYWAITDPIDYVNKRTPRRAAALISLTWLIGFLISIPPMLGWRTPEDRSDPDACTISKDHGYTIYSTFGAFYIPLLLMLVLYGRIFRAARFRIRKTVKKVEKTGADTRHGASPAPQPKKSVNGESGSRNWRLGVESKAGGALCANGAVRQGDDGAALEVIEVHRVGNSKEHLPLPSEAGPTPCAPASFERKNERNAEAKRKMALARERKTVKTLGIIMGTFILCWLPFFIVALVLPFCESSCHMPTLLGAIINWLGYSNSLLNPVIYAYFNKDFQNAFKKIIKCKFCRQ

[9] = target: D(2) dopamine receptor (Homo sapiens, UniProt P14416)
Sequence of D(2) dopamine receptor (P14416 whole entry): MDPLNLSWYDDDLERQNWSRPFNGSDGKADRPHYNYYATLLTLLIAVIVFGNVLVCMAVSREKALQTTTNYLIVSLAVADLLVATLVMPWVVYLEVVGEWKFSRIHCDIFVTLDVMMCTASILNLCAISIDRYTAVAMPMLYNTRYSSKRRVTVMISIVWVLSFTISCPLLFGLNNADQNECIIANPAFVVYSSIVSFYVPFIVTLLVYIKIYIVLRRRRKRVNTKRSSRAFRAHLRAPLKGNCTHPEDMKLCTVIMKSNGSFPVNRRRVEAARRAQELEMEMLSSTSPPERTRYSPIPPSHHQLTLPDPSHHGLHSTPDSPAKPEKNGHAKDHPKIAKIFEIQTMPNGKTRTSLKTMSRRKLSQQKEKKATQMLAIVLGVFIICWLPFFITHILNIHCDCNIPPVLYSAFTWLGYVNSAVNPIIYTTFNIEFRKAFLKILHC

Sequence of Beta-2 adrenergic receptor (P07550 whole entry): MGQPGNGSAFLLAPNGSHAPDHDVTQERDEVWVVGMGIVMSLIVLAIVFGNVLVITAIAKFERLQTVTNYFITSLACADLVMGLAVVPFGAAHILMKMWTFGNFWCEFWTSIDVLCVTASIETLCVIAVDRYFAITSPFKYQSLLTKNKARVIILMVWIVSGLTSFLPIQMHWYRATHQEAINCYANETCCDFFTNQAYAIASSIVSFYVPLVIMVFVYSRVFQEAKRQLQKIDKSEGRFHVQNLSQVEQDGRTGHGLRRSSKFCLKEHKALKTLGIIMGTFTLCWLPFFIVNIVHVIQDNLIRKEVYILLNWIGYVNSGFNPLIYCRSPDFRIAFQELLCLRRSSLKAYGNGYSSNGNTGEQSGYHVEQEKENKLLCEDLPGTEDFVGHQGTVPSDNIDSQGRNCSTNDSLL
Sequence of 5-hydroxytryptamine receptor 1D (P28221 whole entry): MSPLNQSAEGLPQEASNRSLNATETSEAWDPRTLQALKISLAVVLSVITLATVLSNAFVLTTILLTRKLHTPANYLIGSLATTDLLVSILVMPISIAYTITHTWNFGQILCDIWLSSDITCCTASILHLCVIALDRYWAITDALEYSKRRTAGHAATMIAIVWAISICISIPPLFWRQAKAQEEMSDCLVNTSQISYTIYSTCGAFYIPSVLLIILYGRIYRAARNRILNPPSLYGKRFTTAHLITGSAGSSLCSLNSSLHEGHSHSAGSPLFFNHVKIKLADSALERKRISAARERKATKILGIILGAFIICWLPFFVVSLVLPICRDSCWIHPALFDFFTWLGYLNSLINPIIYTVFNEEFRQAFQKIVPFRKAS
Sequence of D(1A) dopamine receptor (P21728 whole entry): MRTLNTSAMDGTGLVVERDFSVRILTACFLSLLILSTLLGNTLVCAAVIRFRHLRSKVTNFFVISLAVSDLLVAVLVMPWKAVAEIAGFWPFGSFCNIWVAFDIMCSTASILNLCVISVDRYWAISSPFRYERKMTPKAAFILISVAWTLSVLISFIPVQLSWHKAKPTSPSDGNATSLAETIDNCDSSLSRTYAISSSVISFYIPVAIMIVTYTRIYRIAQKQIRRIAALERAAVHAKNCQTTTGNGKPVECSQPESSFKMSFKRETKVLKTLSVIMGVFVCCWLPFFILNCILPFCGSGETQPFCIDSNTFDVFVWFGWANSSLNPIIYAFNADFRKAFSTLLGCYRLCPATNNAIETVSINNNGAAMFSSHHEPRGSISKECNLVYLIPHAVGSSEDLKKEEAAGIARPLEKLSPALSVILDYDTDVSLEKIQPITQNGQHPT

## Clc1cccc(N2CCNCC2)c1 [mCPP]
[1]
  Ki: 2500 nM
[2]
  Ki: 570 nM
[3]
  Ki: > 10000 nM
[4]
  Ki: 2900 nM
[5]
  Ki: 7000 nM
[6]
  Ki: 1300 nM
[7]
  Ki: > 10000 nM
[8]
  Ki: 400 nM
[9]
  Ki: > 10000 nM

Source: BindingDB's records for doi:10.1016/0006-3223(89)90217-5 (Stanford University, 1989)
